Measurements reported in patent publication US20250049819A1, “METHODS FOR TREATING AND PREVENTING C. DIFFICILE INFECTION” (Paratek Pharmaceuticals, Inc., priority 2016, published 2025).
In brackets after ≈: the same amount, converted by molar mass. Read-outs that look alike come from different tables or passages of the source.

Columns and labels:
[1] = system: C. difficile strains (N = 27); experiment: MIC by broth microdilution against C. difficile clinical isolates; format: cell-based; conditions: Clostridioides difficile, 27 isolates
Protocol: The activity of omadacycline was tested in vitro against 27 clinical isolates of C. difficile. […] The experiments were carried out using broth and agar microdilution methods according to Clinical and Laboratory Standards Institute (CLSI) guidelines. […] Each test was run in duplicate.

[2] = system: C. difficile strain ATCC 43596; experiment: MIC90 against the infection model strain; format: cell-based; conditions: Clostridioides difficile, ATCC43596
[3] = system: C. difficile strain ATCC 43596; experiment: Hamster model of C. difficile-associated diarrhea, survival; format: in vivo
[4] = system: gut microflora populations; experiment: In vitro human gut model, gut microflora populations (Example 3); format: cell-based
From the text: An in vitro gut model was used to study the effects of omadacycline instillation on both normal microflora populations and C. difficile. This gut model has been validated against gut contents from sudden death victims and provides a very close simulation of bacterial activities and composition in different areas of the hindgut (Macfarlane et al., Microb. Ecol. 35, 180-7, 1998). The model consists of three vessels aligned in series, and top-fed with a complex growth medium. All three vessels are continuously stirred, anaerobically maintained at 37° C. and regulated to reflect in vivo differences, including pH, from proximal to distal colon. The three anaerobic fermentation vessels are maintained at increasing alkalinity (from pH 5.5±0.2 for vessel 1; pH 6.2±0.2 for vessel 2; and pH 6.8±0.2 for vessel 3). The increasing alkalinity in combination with the nutrient limited conditions are designed to simulate the human gut from the proximal to the distal colon. Inoculation with pooled human feces (from healthy elderly volunteers) is followed by a period of equilibration, during which bacterial populations respond to their environmental conditions and reach a steady state. At this stage, dietary ingredients, prebiotics, pathogens and/or antibiotics may be added, and the bacterial populations monitored. Specific components of the gut flora and relevant pathogens may be closely monitored and their behavior analyzed.
(§1) The gut model was inoculated with pooled fecal slurry (5 volunteers ≥60 years of age with no history of antibiotic therapy in the previous 3 months) and left for 2 weeks to allow the bacterial populations to achieve steady state. A single inoculum (˜10^7 cfu/mL) of C. difficile spores (PCR ribotype 027 strain 210) was added into vessel 1 of the gut model on day 14. One week later, on day 21, a second aliquot of C. difficile spores was added, and antibiotic instillation commenced. Omadacycline instillation (430 mg/L, once daily, for 7 days) commenced on day 21.
Gut microbiota bacterial populations and C. difficile total viable counts and spore counts were enumerated daily by culture on selective and non-selective agars. C. difficile populations were monitored in all three vessels, and all other bacterial groups (total obligate anaerobes, total facultative anaerobes, lactose fermenting enterobacteriaceae, enterococci, total clostridia, lactobacilli, bifidobacteria, B. fragilis group) were monitored in vessels 2 and 3 only. Vessel 3 is of most physiological relevance in terms of propensity to induce CDI. C. difficile total viable counts and spores counts were monitored using viable counting and a differential alcohol shock viable count on selective agars.

[5] = system: gut microflora populations; experiment: In vitro human gut model, gut microflora populations (Example 4); format: cell-based
Protocol: as §1, with “Model A (LHS) was exposed to moxifloxacin (43 mg/L, once daily, for 7 days) and Model B (RHS) was exposed to omadacycline” for “Omadacycline instillation”
(§2) Bacterial populations in the gut model were monitored using selective agars to count viable bacterial colonies. Populations were monitored every other day for the first 2 weeks until the steady state was reached, and daily thereafter. C. difficile populations were monitored in all three vessels, and all other bacterial groups (total obligate anaerobes, total facultative anaerobes, lactose fermenting Enterobacteriaceae, Enterococci, total Clostridia, Lactobacilli, Bifidobacteria and B. fragilis group) were monitored in vessels 2 and 3 only. Vessel 3, which represents the distal colon, is of most physiological relevance in terms of propensity to induce CDI. C. difficile total viable counts and spores counts were monitored using viable counting and a differential alcohol shock viable count on selective agars. From day 14 onwards C. difficile cytotoxin was measured using a quantitative VERO cell cytotoxicity assay. Samples of 1 mL each were centrifuged at 16,000×g for 15 minutes, and the supernatants were removed. Six 1:10 serial dilutions (to 10^−6) of culture supernatants from the gut model were prepared. Twenty microliters of the appropriate dilution was added to VERO cell monolayers and a further 20 μL of C. sordellii antitoxin (diluted 1:10 in sterile distilled water) was placed in the corresponding antitoxin row. Monolayers were examined after 24 and 48 hours of incubation in 5% CO2, with a positive result indicated by the presence of cell rounding with concurrent neutralization of the effect by C. sordellii antitoxin. Cytotoxin titers (relative units, RU) were an arbitrary log10 scale, and the cytotoxin titer is reported in the highest dilution with >70% cell rounding, i.e. 10^0=1 RU, 10^−1=2 RU, 10^−2=3 RU. Samples were taken daily from day 21 onwards to determine antimicrobial concentrations in the gut model vessels by a bioassay. Concentrations of moxifloxacin were determined using Isosensitest agar with Escherichia coli as the indicator organism. Concentrations of omadacyline were determined using Wilkins Chalgren agar with Kocuria rhizophila as the indicator organism.

[6] = system: C. difficile PCR ribotype 027 strain 210; experiment: In vitro human gut model, C. difficile germination, proliferation and toxin production (Example 4); format: cell-based
Protocol: as §1, with “Model A (LHS) was exposed to moxifloxacin (43 mg/L, once daily, for 7 days) and Model B (RHS) was exposed to omadacycline” for “Omadacycline instillation”
as §2

[7] = Elimination of an oral dose via the biliary/fecal pathway; format: in vivo
[8] = oral 50 mg/kg/day for 5 days, N=10
[9] = vessels 2 and 3, 430 mg/L once daily for 7 days
[10] = vessels 2 and 3, 430 mg/L once daily for 7 days, fell below limit of detection
[11] = vessels 2 and 3, once daily for 7 days

## CN(C)c1cc(CNCC(C)(C)C)c(O)c2c1C[C@H]1C[C@H]3[C@H](N(C)C)C(O)=C(C(N)=O)C(=O)[C@@]3(O)C(O)=C1C2=O (stereo in doubt) [Omadacycline]
[1]; read-out: MIC90 by broth dilution
  MIC90: 0.06 µg/mL (≈ 0.108 µM)
[1]; Wilkins-Chalgren broth, 48 hours anaerobic
  MIC50: 60 µg/mL (≈ 108 µM)
[1]; Wilkins-Chalgren broth, 48 hours anaerobic, read-out: Broth Microdilution MIC90
  MIC90: 60 µg/mL (≈ 108 µM)
[2]; read-out: MIC90
  MIC90: 0.06 µg/mL (≈ 0.108 µM)
[2]; replicate plate A, read-out: MIC90 Plate A
  MIC90: 0.06 µg/mL (≈ 0.108 µM)
[2]; replicate plate B, read-out: MIC90 Plate B
  MIC90: 0.06 µg/mL (≈ 0.108 µM)
[3]; oral 50 mg/kg/day for 5 days (clindamycin: 10 mg/kg SC pre-treatment only), N=10
  percent survival at day 2 post infection: 100%
[3]; oral 50 mg/kg/day for 5 days (clindamycin: pre-treatment only), followed up to 21 days
  Median Survival: 12 days
[3]; [8]
  percent survival by day 3: 60%
  percent survival on day 13: 40%
  percent survival on day 16: 0%
[4]; after end of dosing
  time for all populations to return to steady state levels post antimicrobial exposure: approximately 1 week
[4]; [9]
  Enterobacteriacea populations: remained undisturbed
  decrease in B. fragilis group: ~3 log10 cfu/mL
  decrease in Enterococcus spp.: ~4 log10 cfu/mL
  decrease in Lactobacillus spp.: ~2 log10 cfu/mL
[4]; [10]
  decline in Bifidobacteria population: ~6 log10 cfu/mL
  decline in Clostridia population: ~6 log10 cfu/mL
[5]; all populations
  recovery of populations after end of dosing: returned to pre-antibiotic exposure levels by the end of the experiment
[5]; particularly in vessel 2
  Enterobacteriaceae populations: increased during omadacycline exposure
[5]; [11]
  decline in B. fragilis group: ~8 log10 cfu/mL
  decline in Bifidobacteria: ~8 log10 cfu/mL
  decline in Enterococcus spp. / Enterococci populations: ~6 log10 cfu/mL
  decline in Lactobacilli: ~6 log10 cfu/mL
  decrease in Clostridia: ~5 log10 cfu/mL
  decrease in lactose fermenting Enterobacteriaceae: ~5 log10 cfu/mL
  overall decline in total anaerobe populations: ~5 log10 cfu/mL
  total facultative anaerobes: remained fairly stable throughout
[6]; all three vessels
  C. difficile spore germination / vegetative cell proliferation: no vegetative cell proliferation observed
[6]; all vessels
  C. difficile toxin detection (VERO cell cytotoxicity assay): No toxin was detected
[6]; once daily for 7 days, omadacycline 430 mg/L, moxifloxacin 43 mg/L
  signs of simulated CDI: did not lead to any signs of simulated CDI
[7]
  proportion of the absorbed omadacycline eliminated in the gut (biliary/fecal elimination pathway): approximately 60%
